Measured values as given in the NIST ThermoML archive (doi:10.1016/j.jct.2012.09.012).

Assay: molar heat capacity at constant pressure; xn = mol fraction of the nth substance listed
Conditions: 101 kPa, Liquid, Small sample (50 mg) DSC

CC1=CC[C@H]2C[C@@H]1C2(C)C [(S)-2-pinene] + C=C1CCC2CC1C2(C)C
molar heat capacity at constant pressure [J/K/mol]
Conditions | x1 = 0.1002 | x1 = 0.2041 | x1 = 0.2997 | x1 = 0.3922 | x1 = 0.5012 | x1 = 0.5907 | x1 = 0.7026 | x1 = 0.7987 | x1 = 0.9002 | x1 = 1
368.17 K | 279.28 | 279.28 | 279.28 | 279.28 | 280.64 | 280.64 | 276.56 | 276.56 | 277.92 | 279.28
373.21 K | 283.37 | 282 | 282 | 282 | 282 | 282 | 279.28 | 280.64 | 279.28 | 282
378.2 K | 284.73 | 283.37 | 284.73 | 284.73 | 284.73 | 284.73 | 280.64 | 282 | 282 | 284.73
383.17 K | 287.45 | 286.09 | 287.45 | 287.45 | 286.09 | 287.45 | 284.73 | 283.37 | 284.73 | 287.45
388.2 K | 291.54 | 288.82 | 290.18 | 291.54 | 290.18 | 290.18 | 288.82 | 286.09 | 287.45 | 291.54
393.17 K | 292.9 | 291.54 | 292.9 | 294.27 | 292.9 | 291.54 | 291.54 | 288.82 | 288.82 | 292.9
398.2 K | 294.27 | 295.63 | 294.27 | 296.99 | 295.63 | 294.27 | 294.27 | 292.9 | 292.9 | 294.27
403.19 K | 296.99 | 298.35 | 296.99 | 299.71 | 298.35 | 296.99 | 295.63 | 295.63 | 294.27 | 296.99
408.16 K | 299.71 | 301.08 | 299.71 | 303.8 | 302.44 | 299.71 | 299.71 | 298.35 | 296.99 | 299.71
413.19 K | 301.08 | 302.44 | 301.08 | 305.16 | 305.16 | 301.08 | 301.08 | 299.71 | 299.71 | 301.08
418.19 K | 303.8 | 305.16 | 303.8 | 306.53 | 306.53 | 302.44 | 303.8 | 303.8 | 302.44 | 303.8
